From patent US20100076015A1, “Aminopyridine Derivatives” (VANTIA LIMITED, priority 2008, published 2010) come the findings set out here.

The term pIC50 denotes −log10 of the IC50, conventionally taken in molar units. High values mean a small IC50, low ones a large IC50.

Molecules are shown by their SMILES. pIC50: −log10 of the molar value.

Common to all, as to assay type: biochemical
One assay deals with plasmin (Homo sapiens, UniProt P00747). As to the kind of experiment: Enzyme selectivity: plasmin (chromogenic substrate S-2390). As to conditions: chromogenic substrate S-2390, 37° C. As for the experimental part: (§1) Determination of Enzyme Selectivity
(§2) Selected compounds were further screened for inhibitory activity against other trypsin-like serine proteases using the appropriate enzyme and chromogenic substrate (Chromogenix AB). The activity against the following human enzymes was tested (substrate in brackets):—plasma kallikrein (S-2302), thrombin (S-2238), plasmin (S-2390) and trypsin (S-2222). The enzyme was incubated at 37° C. with the chromogenic substrate. Residual enzyme activity (initial rate of reaction) was determined by measuring the change in optical absorbance at 405 nm.

The next assay has as its target trypsin. The assay can be described thus: Enzyme selectivity: trypsin (chromogenic substrate S-2222). The note with it: human enzyme, chromogenic substrate S-2222, 37° C. On the procedure:
as §1, §2

In the next assay the target is thrombin (Homo sapiens, UniProt P00734). As to the kind of experiment: Enzyme selectivity: thrombin (chromogenic substrate S-2238). As to conditions: chromogenic substrate S-2238, 37° C. On the procedure:
as §1, §2

The target of another assay is plasma kallikrein (Homo sapiens, UniProt P03952). As to the kind of experiment: Enzyme selectivity: plasma kallikrein (chromogenic substrate S-2302). As to conditions: chromogenic substrate S-2302, 37° C. On the procedure:
as §1, §2

The target of the next assay is T1, Human KLK1 (Homo sapiens, UniProt P06870).
T1 construct: purchased Callbiochem (Calbiochem)
The assay can be described thus: Determination of the IC50 for KLK1 (fluorogenic substrate H-DVal-Leu-Arg-AFC). As to conditions: 37° C. The method, boiled down:
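Test compound at various concentrations was incubated with human KLK1 and the fluorogenic substrate H-DVal-Leu-Arg-AFC at 37° C. Absorbance change at 410 nm gave the initial reaction rate, from which IC50 was obtained.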

Chain of plasmin (P00747 581-810 limits assumed): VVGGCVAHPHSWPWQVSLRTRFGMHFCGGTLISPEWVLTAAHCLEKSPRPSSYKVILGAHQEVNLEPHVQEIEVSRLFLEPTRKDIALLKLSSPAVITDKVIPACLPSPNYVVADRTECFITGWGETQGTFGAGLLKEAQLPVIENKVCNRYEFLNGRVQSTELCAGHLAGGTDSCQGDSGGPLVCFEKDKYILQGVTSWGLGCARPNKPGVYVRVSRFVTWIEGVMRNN
Chain of plasmin (P00747 97-580 partner limits assumed): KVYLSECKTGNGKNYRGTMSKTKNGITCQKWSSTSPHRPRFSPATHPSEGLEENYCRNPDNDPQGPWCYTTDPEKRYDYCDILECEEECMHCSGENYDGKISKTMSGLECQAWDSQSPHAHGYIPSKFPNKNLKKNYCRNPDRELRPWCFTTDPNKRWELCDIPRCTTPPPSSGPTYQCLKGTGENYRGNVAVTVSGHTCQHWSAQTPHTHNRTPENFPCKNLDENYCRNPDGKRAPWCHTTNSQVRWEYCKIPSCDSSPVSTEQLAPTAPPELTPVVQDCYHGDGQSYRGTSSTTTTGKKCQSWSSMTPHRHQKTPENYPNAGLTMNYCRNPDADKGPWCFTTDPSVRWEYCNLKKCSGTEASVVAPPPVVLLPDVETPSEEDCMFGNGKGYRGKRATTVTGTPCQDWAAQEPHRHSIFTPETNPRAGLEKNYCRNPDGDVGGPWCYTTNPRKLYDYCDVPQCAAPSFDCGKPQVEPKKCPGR
Chain of plasma kallikrein (P03952 20-638): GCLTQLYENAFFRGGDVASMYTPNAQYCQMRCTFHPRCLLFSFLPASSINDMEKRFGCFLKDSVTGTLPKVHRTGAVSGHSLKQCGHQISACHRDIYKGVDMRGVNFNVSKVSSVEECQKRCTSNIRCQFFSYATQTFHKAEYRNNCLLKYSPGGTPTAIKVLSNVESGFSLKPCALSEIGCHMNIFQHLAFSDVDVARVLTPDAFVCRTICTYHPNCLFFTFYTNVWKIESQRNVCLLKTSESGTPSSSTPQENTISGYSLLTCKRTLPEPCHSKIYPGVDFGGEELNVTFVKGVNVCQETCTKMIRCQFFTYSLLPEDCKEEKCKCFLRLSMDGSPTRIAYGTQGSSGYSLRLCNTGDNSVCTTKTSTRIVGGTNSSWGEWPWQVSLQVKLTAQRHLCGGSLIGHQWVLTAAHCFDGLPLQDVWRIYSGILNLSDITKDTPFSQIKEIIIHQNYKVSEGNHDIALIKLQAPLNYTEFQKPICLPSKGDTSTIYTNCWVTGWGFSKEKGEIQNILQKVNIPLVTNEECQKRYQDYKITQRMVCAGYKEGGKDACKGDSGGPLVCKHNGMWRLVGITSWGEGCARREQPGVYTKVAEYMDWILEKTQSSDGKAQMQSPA
T1 sequence (P06870 25-262): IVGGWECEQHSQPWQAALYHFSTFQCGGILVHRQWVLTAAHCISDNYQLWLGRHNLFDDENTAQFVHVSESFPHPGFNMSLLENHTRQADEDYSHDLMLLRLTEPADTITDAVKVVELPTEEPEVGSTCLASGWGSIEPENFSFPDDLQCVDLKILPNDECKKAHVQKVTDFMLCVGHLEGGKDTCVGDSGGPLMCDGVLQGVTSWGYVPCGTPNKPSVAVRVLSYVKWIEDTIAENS

Regarding `CCC(C)[C@@H](N)C(=O)N[C@@H](Cc1ccccc1)C(=O)NCc1ccc(N)nc1` (stereo partly drawn) [Example 26, (R)-2-Amino-3-methyl-pentanoic acid {(S)-1-[(6-amino-pyridin-3-ylmethyl)-carbamoyl]-2-phenyl-ethyl}-amide], the pIC50 against plasmin was < 5.00; at trypsin it was < 5.00; at thrombin, < 5.00; against plasma kallikrein, < 5.00; against Human KLK1, 7.69.
Turning to `CCC(C)[C@@H](N)C(=O)N[C@@H](Cc1cccc(C)c1)C(=O)NCc1ccc(N)nc1` (stereo partly drawn) [Example 27, (R)-2-Amino-3-methyl-pentanoic acid {(S)-1-[(6-amino-pyridin-3-ylmethyl)-carbamoyl]-2-m-tolyl-ethyl}-amide], the pIC50 at plasmin was < 5.00; against trypsin it was < 5.00; against thrombin, < 5.00; at plasma kallikrein it was < 5.00; against Human KLK1, 8.60.
As to `CCC(C)[C@@H](N)C(=O)N[C@@H](Cc1cccc(F)c1)C(=O)NCc1ccc(N)nc1` (stereo partly drawn) [Example 29, (R)-2-Amino-3-methyl-pentanoic acid [(S)-1-[(6-amino-pyridin-3-ylmethyl)-carbamoyl]-2-(3-fluoro-phenyl)-ethyl]-amide], the pIC50 against plasmin is < 5.00; on trypsin, < 5.00; against thrombin it was < 5.00; against plasma kallikrein, < 5.00; on Human KLK1, 7.99.
On to `CCC(C)[C@@H](N)C(=O)N[C@@H](Cc1cccc(C(F)(F)F)c1)C(=O)NCc1ccc(N)nc1` (stereo partly drawn) [Example 30, (R)-2-Amino-3-methyl-pentanoic acid [(S)-1-[(6-amino-pyridin-3-ylmethyl)-carbamoyl]-2-(3-trifluoromethyl-phenyl)-ethyl]-amide], for which the pIC50 at plasmin is < 5.00; at trypsin, < 5.00; against thrombin it was < 5.00; against plasma kallikrein it was < 5.00; against Human KLK1, 8.96.
Turning to `Nc1ccc(CNC(=O)[C@H](Cc2ccc(Cl)c(Cl)c2)NC(=O)[C@H](N)Cc2ccccc2)cn1` [Example 54, (R)-2-Amino-N-[(S)-1-[(6-amino-pyridin-3-ylmethyl)-carbamoyl]-2-(3,4-dichloro-phenyl)-ethyl]-3-phenyl-propionamide], the pIC50 is < 5.00 on plasmin; < 5.00 at trypsin; < 5.00 against thrombin; < 5.00 at plasma kallikrein; 9.54 against Human KLK1.
Take `Nc1ccc(CNC(=O)[C@H](Cc2ccc(Cl)c(Cl)c2)NC(=O)[C@H](N)Cc2ccc(Cl)cc2)cn1` [Example 59, (R)-2-Amino-N-[(S)-1-[(6-amino-pyridin-3-ylmethyl)-carbamoyl]-2-(3,4-dichloro-phenyl)-ethyl]-3-(4-chloro-phenyl)-propionamide]: the pIC50 is < 5.00 at plasmin; < 5.00 against trypsin; < 5.00 at thrombin; < 5.00 against plasma kallikrein; 9.25 against Human KLK1.
With `CN[C@H](Cc1ccccc1)C(=O)N[C@@H](Cc1ccc(Cl)c(Cl)c1)C(=O)NCc1ccc(N)nc1` [Example 60, (R)—N-[(S)-1-[(6-Amino-pyridin-3-ylmethyl)-carbamoyl]-2-(3,4-dichloro-phenyl)-ethyl]-2-methylamino-3-phenyl-propionamide], the negative logarithm of the IC50 (pIC50) at plasmin was < 5.00; on trypsin, < 5.00; against thrombin, < 5.00; against plasma kallikrein, < 5.00; against Human KLK1, 9.15.
Regarding `CC(C)(C)[C@@H](N)C(=O)N[C@@H](Cc1ccc(Cl)c(Cl)c1)C(=O)NCc1ccc(N)nc1` [Example 61, (R)-2-Amino-N-[(S)-1-[(6-amino-pyridin-3-ylmethyl)-carbamoyl]-2-(3,4-dichloro-phenyl)-ethyl]-3,3-dimethyl-butyramide], the pIC50 at plasmin was < 5.00; against trypsin it was < 5.00; against thrombin, < 5.00; against plasma kallikrein, < 5.00; on Human KLK1, 9.40.
For `CN[C@H](C)C(=O)N[C@@H](Cc1ccc(Cl)c(Cl)c1)C(=O)NCc1ccc(N)nc1` [Example 62, (R)—N-[(S)-1-[(6-Amino-pyridin-3-ylmethyl)-carbamoyl]-2-(3,4-dichloro-phenyl)-ethyl]-2-methylamino-propionamide], the pIC50 against plasmin was < 5.00; against trypsin, < 5.00; against thrombin, < 5.00; on plasma kallikrein it was < 5.00; against Human KLK1 it was 8.62.
For `CN1CCC[C@@H]1C(=O)N[C@@H](Cc1ccc(Cl)c(Cl)c1)C(=O)NCc1ccc(N)nc1` [Example 90, (R)-1-Methyl-pyrrolidine-2-carboxylic acid [(S)-1-[(6-amino-pyridin-3-ylmethyl)-carbamoyl]-2-(3,4-dichloro-phenyl)-ethyl]-amide], the pIC50 at plasmin was < 5.00; at trypsin it was < 5.00; against thrombin, < 5.00; against plasma kallikrein, < 5.00; at Human KLK1 it was 9.07.
On to `CN1CCC[C@@H]1C(=O)N[C@@H](Cc1cccc(C(F)(F)F)c1)C(=O)NCc1ccc(N)nc1` [Example 91, (R)-1-Methyl-pyrrolidine-2-carboxylic acid [(S)-1-[(6-amino-pyridin-3-ylmethyl)-carbamoyl]-2-(3-trifluoromethyl-phenyl)-ethyl]-amide], for which the pIC50 against plasmin is < 5.00; against trypsin, < 5.00; against thrombin, < 5.00; against plasma kallikrein, < 5.00; on Human KLK1, 8.68.
With `CN1CCC[C@@H]1C(=O)N[C@@H](Cc1cccc2ccccc12)C(=O)NCc1ccc(N)nc1` [Example 92, (R)-1-Methyl-pyrrolidine-2-carboxylic acid {(S)-1-[(6-amino-pyridin-3-ylmethyl)-carbamoyl]-2-naphthalen-1-yl-ethyl}-amide], the pIC50 against plasmin is < 5.00; against trypsin, < 5.00; against thrombin it was < 5.00; at plasma kallikrein, < 5.00; at Human KLK1, 8.44.
For `CCN1CCC[C@@H]1C(=O)N[C@@H](Cc1ccc(F)c(F)c1)C(=O)NCc1ccc(N)nc1` [Example 131, (R)-1-Ethyl-pyrrolidine-2-carboxylic acid [(S)-1-[(6-amino-pyridin-3-ylmethyl)-carbamoyl]-2-(3,4-difluoro-phenyl)-ethyl]-amide], the pIC50 was < 5.00 on plasmin; < 5.00 against trypsin; < 5.00 against thrombin; < 5.00 at plasma kallikrein; 9.27 on Human KLK1.
For `CN1CCCC[C@@H]1C(=O)N[C@@H](Cc1ccc(F)cc1)C(=O)NCc1ccc(N)nc1` [Example 145, (R)-1-Methyl-piperidine-2-carboxylic acid [(S)-1-[(6-amino-pyridin-3-ylmethyl)-carbamoyl]-2-(4-fluoro-phenyl)-ethyl]-amide], the pIC50 on plasmin is < 5.00; at trypsin, < 5.00; at thrombin, < 5.00; against plasma kallikrein, < 5.00; at Human KLK1, 7.98.
For the molecule `CC(C)N(CC(=O)N[C@@H](Cc1ccc(F)c(F)c1)C(=O)NCc1ccc(N)nc1)C(C)C` [Example 157, (S)—N-(6-Amino-pyridin-3-ylmethyl)-3-(3,4-difluoro-phenyl)-2-(2-diisopropylamino-acetylamino)-propionamide], the pIC50 on plasmin is < 5.00; on trypsin, < 5.00; at thrombin it was < 5.00; at plasma kallikrein, < 5.00; at Human KLK1, 6.91.
As to `CC(C)N(C)[C@@H](C)C(=O)N[C@@H](Cc1ccc(F)c(F)c1)C(=O)NCc1ccc(N)nc1` [Example 176, (S)—N-[(S)-1-[(6-Amino-pyridin-3-ylmethyl)-carbamoyl]-2-(3,4-difluoro-phenyl)-ethyl]-2-(isopropyl-methyl-amino)-propionamide], the pIC50 against plasmin is < 5.00; against trypsin it was < 5.00; at thrombin, < 5.00; on plasma kallikrein, < 5.00; against Human KLK1, 8.40.
As for `CCC(C)[C@H](C(=O)N[C@@H](Cc1csc2ccccc12)C(=O)NCc1ccc(N)nc1)N(C)S(C)(=O)=O` (stereo partly drawn) [Example 213, (R)-2-(Methanesulfonyl-methyl-amino)-3-methyl-pentanoic acid {(S)-1-[(6-amino-pyridin-3-ylmethyl)-carbamoyl]-2-benzo[b]thiophen-3-yl-ethyl}-amide], the pIC50 against plasmin is < 5.00; against trypsin, < 5.00; at thrombin, < 5.00; against plasma kallikrein, < 5.00; against Human KLK1 it was 8.55.
For `Cc1cc[nH]c1C(=O)N[C@@H](Cc1ccc(F)c(F)c1)C(=O)NCc1ccc(N)nc1` [Example 226, 3-Methyl-1H-pyrrole-2-carboxylic acid [(S)-1-[(6-amino-pyridin-3-ylmethyl)-carbamoyl]-2-(3,4-difluoro-phenyl)-ethyl]-amide], the pIC50 is < 5.00 on plasmin; < 5.00 at trypsin; < 5.00 against thrombin; < 5.00 against plasma kallikrein; 8.00 at Human KLK1.
For the molecule `Nc1ccc(CNC(=O)[C@H](CC2CCCC3CCCCC32)NC(=O)c2ccc[nH]2)cn1` (stereo partly drawn) [Example 227, 1H-Pyrrole-2-carboxylic acid [(S)-1-[(6-amino-pyridin-3-ylmethyl)-carbamoyl]-2-(decahydro-naphthalen-1-yl)-ethyl]-amide], the negative logarithm of the IC50 (pIC50) was < 5.00 at plasmin; < 5.00 on trypsin; < 5.00 on thrombin; < 5.00 at plasma kallikrein; 8.28 at Human KLK1.
